Measurements from PubChem BioAssay (NCI).
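1) Cells in 96-well plates. 2) Compound, 48 h, 5 concentrations. 3) Linear interpolation between surrounding doses. 4) Unreached endpoint = highest concentration. At the TGI there is no net growth.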

Experiments:
Assay in all cases: growth of human tumour cells (NCI), 48 h
CAKI-1 renal = test system: CAKI-1 renal
RPMI-8226 leukemia = test system: RPMI-8226 leukemia
HT29 colon = test system: HT29 colon
T-47D breast = test system: T-47D breast
NCI-H522 lung = test system: NCI-H522 lung
A549 NSCLC = test system: A549 NSCLC
PC-3 prostate = test system: PC-3 prostate
786-0 renal = test system: 786-0 renal
CCRF-CEM leukemia = test system: CCRF-CEM leukemia
M14 melanoma = test system: M14 melanoma

| SMILES | TGI (CAKI-1 renal) [µM] | TGI (RPMI-8226 leukemia) [µM] | TGI (HT29 colon) [µM] | TGI (T-47D breast) [µM] | TGI (NCI-H522 lung) [µM] | TGI (A549 NSCLC) [µM] | TGI (PC-3 prostate) [µM] | TGI (786-0 renal) [µM] | TGI (CCRF-CEM leukemia) [µM] | TGI (M14 melanoma) [µM] |
| --- | --- | --- | --- | --- | --- | --- | --- | --- | --- | --- |
| NCCN1CCCCCc2ccccc21 | > 10 | > 10 | > 10 | > 10 | > 10 | > 10 | > 10 | > 10 | > 10 | – |
| CCCCI(O)OS(=O)(=O)c1ccc(C)cc1 | > 100 | > 100 | > 100 | > 100 | 48.9 | > 100 | > 100 | > 100 | 76.3 | > 100 |
| COc1ccc(CNc2cnc3ccc(N)cc3n2)cc1 | > 100 | > 100 | > 100 | – | > 100 | > 100 | – | > 100 | > 100 | > 100 |
| CN(/N=C1\C(=O)Nc2ccccc21)c1ccccc1 | > 100 | > 100 | > 100 | > 100 | > 100 | > 100 | > 100 | – | > 100 | > 100 |
| COC(=O)CC(=O)OSc1ccccc1 | – | > 100 | – | – | 12.8 | 77.3 | – | – | > 100 | 38.7 |
| [N-]=[N+]=CC(=O)C1CCCN1C(=O)c1ccccc1 (stereo not given) | > 10 | > 10 | > 10 | > 10 | – | > 10 | > 10 | > 10 | > 10 | > 10 |
| OCc1cn(Cc2ccccc2)c2ccccc12 | 1.64 | 12.1 | > 84.5 | – | 17.1 | > 100 | 78.2 | > 53 | > 40.9 | > 54.3 |
| COCOc1ccc(C(=O)Oc2cccc3c2OC(C)(C)O3)c(OCOC)c1 | > 100 | > 100 | > 100 | > 100 | – | – | – | > 100 | > 100 | > 100 |
| Cc1ccccc1-c1nc2c(N)nc(N)nc2nc1N | > 100 | > 100 | > 100 | – | > 100 | > 100 | > 100 | > 100 | > 100 | > 100 |
| O=C(c1ccco1)N(C(=O)N1CCCCC1)c1ccccc1 | > 100 | > 100 | > 100 | – | – | – | > 100 | > 100 | > 100 | > 100 |
| Cc1nnc2n(c1=O)CCCN2C | – | > 100 | > 100 | > 100 | – | > 100 | > 100 | > 100 | > 100 | > 100 |
| c1ccc2c(c1)SCCCS2 | – | – | > 100 | > 100 | > 100 | > 100 | > 100 | > 100 | > 100 | > 100 |
| CC(C)C(Br)CCC1=CCC(Br)(Br)C1 (stereo not given) | 33.7 | – | 28.6 | – | 6.81 | 33.8 | 28.5 | 29.6 | > 100 | 12.9 |
| COC(=O)CNC(=O)C(CSC(=O)OCC1c2ccccc2-c2ccccc21)NC(=O)CCC(NC(=O)OCC1c2ccccc2-c2ccccc21)C(=O)OC (stereo not given) | 19.9 | 90.1 | – | – | 17 | 27.5 | > 100 | 26.6 | 38.7 | 58.9 |
| COC(=O)[C@]1(C)CCC[C@@]2(C)C1CC[C@]13C=C(C(C)C)[C@H](CC21)CC3(Cl)C#N (stereo not given in full) | > 100 | – | > 100 | 55.8 | > 100 | > 100 | > 100 | > 100 | 60.6 | > 100 |
| O=[N+]([O-])c1ccc(C[P+]2(c3ccccc3)CCCCC2)cc1 | – | > 100 | > 100 | – | > 100 | > 100 | – | > 100 | > 100 | > 100 |
| CC(=O)O[C@@H](c1nccn1Cc1ccccc1)[C@H]1OC(C)(C)O[C@@H]1[C@H]1COC(C)(C)O1 | > 100 | > 100 | > 100 | – | > 100 | > 100 | > 100 | > 100 | > 100 | – |
| COc1ccc(C)cc1N1C(=O)C2ON(Cc3ccc(CC(N)=O)cc3)C(c3c4ccccc4c(Cl)c4ccccc34)C2C1=O (stereo not given) | 76.5 | – | 40.9 | > 100 | > 100 | > 100 | > 100 | 50.2 | > 100 | 38.8 |
| O=c1c2c3c(sc2[nH]c(=S)n1-c1ccccc1)CCCc1ccc([N+](=O)[O-])cc1-3 | > 100 | 62.7 | 61.3 | 37.1 | 36.5 | > 100 | > 100 | > 100 | – | > 100 |
| O=C1C=CC2(O[C@H](c3ccccc3)[C@@H](c3ccccc3)O2)[C@H](Sc2ccccc2O)C1 | 0.886 | – | 1.45 | – | 0.182 | 16.4 | 2.06 | 0.356 | – | 0.609 |
| CC(C)Oc1cccc(N2C(n3ccnc3)=Nc3ccncc3S2(=O)=O)c1 | 28.3 | 12.3 | 34.9 | 41.5 | 22 | 37.2 | 22.7 | 22.1 | – | 28.2 |
| COc1cc2ccc3c4cc(OC)c(OC)cc4c[n+](C)c3c2cc1O | > 100 | > 100 | > 100 | – | 78.7 | > 100 | – | > 100 | > 100 | > 100 |
| Nc1ncnc2c1nnn2C1C=CC(CP(=O)(O)O)C1 (stereo not given) | – | > 100 | > 100 | > 100 | – | > 100 | > 100 | > 100 | – | > 100 |
| CN(C)C(=O)C(F)(F)C(c1ccc(F)cc1)C1C(=O)N(C)C(=O)N(C)C1=O (stereo not given) | > 100 | > 100 | – | > 100 | – | > 100 | > 100 | > 100 | > 100 | > 100 |
